# Experimental data taken from patent publication US20120122727A1, “IN VITRO METHOD FOR PREDICTING WHETHER A COMPOUND IS GENOTOXIC IN VIVO” (priority 2009, published 2012).
# Assays:
# [1] = system: primary mouse hepatocytes; assay: Gene expression (Affymetrix Mouse Genome 430 2.0) in primary mouse hepatocytes, true vs false GTX, 24 h and 48 h
# [2] = in vivo; cited from earlier work
# [3] = system: primary mouse hepatocytes
structure (smiles),measurement,setting,value
"Oc1cccc2cccnc12 [8Q, 8-Hydroxyquinoline]",Gene expression AA561726 average,[1],0.1739
same,Gene expression AF000969 average,[1],−0.1809
same,Gene expression AF022072 average,[1],0.0814
same,Gene expression AF033112 average,[1],−0.01703
same,Gene expression AF055573 average,[1],−0.09457
same,Gene expression AF069954 average,[1],0.1841
same,Gene expression AF297615 average,[1],−0.009333
same,Gene expression AF335325 average,[1],0.1418
same,Gene expression AI594683 average,[1],0.1235
same,Gene expression AI747296 average,[1],−0.0009667
same,Gene expression AK005731 average,[1],−0.03997
same,Gene expression AK007854 average,[1],0.05973
same,Gene expression AK010447 average,[1],0.06223
same,Gene expression AK010738 average,[1],0.3608
same,Gene expression AK014608 average,[1],−0.2447
same,Gene expression AK017734 average,[1],0.0878
same,Gene expression AK018383 average,[1],0.0679
same,Gene expression AK019979 average,[1],−0.2154
same,Gene expression AV095209 average,[1],0.2602
same,Gene expression AV141095 average,[1],−0.1725
same,Gene expression AV173869 average,[1],−0.02557
same,Gene expression AV216768 average,[1],0.1679
same,Gene expression AV219418 average,[1],0.4492
same,Gene expression AV221299 average,[1],0.1454
same,Gene expression AV246296 average,[1],−0.1136
same,Gene expression AV251625 average,[1],0.03813
same,Gene expression AV254764 average,[1],0.02403
same,Gene expression AV327248 average,[1],0.1176
same,Gene expression BB009155 average,[1],0.006467
same,Gene expression BB027848 average,[1],−0.06607
same,Gene expression BB043558 average,[1],−0.2347
same,Gene expression BB046347 average,[1],0.1608
same,Gene expression BB140436 average,[1],0.2861
same,Gene expression BB204486 average,[1],0.1305
same,Gene expression BB223872 average,[1],0.05753
same,Gene expression BB246912 average,[1],0.3325
same,Gene expression BB275142 average,[1],0.0112
same,Gene expression BB458460 average,[1],0.1317
same,Gene expression BB463610 average,[1],−0.2369
same,Gene expression BB730977 average,[1],0.3298
same,Gene expression BB743970 average,[1],0.1936
same,Gene expression BB770528 average,[1],−0.01823
same,Gene expression BB781615 average,[1],−0.006367
same,Gene expression BC003284 average,[1],0.09
same,Gene expression BC004827 average,[1],−0.07043
same,Gene expression BC005552 average,[1],0.1343
same,Gene expression BC006713 average,[1],−0.1035
same,Gene expression BC010318 average,[1],0.0565
same,Gene expression BC012247 average,[1],−0.006933
same,Gene expression BC012955 average,[1],−0.3049
same,Gene expression BC013893 average,[1],−0.1654
same,Gene expression BC017615 average,[1],−0.4904
same,Gene expression BC019379 average,[1],−0.1555
same,Gene expression BC019882 average,[1],−0.1719
same,Gene expression BC021352 average,[1],0.4721
same,Gene expression BC022148 average,[1],0.04497
same,Gene expression BC025169 average,[1],0.02213
same,Gene expression BC026131 average,[1],−0.0852
same,Gene expression BC027026 average,[1],0.2479
same,Gene expression BC027121 average,[1],−0.1207
same,Gene expression BC027185 average,[1],−0.1209
same,Gene expression BE956581 average,[1],0.403
same,Gene expression BF719766 average,[1],−0.2717
same,Gene expression BG065754 average,[1],−0.0909
same,Gene expression BG066491 average,[1],−0.1771
same,Gene expression BG076151 average,[1],−0.1887
same,Gene expression BG076333 average,[1],−0.05333
same,Gene expression BG797099 average,[1],0.0658
same,Gene expression BG967046 average,[1],−0.09257
same,Gene expression BI651416 average,[1],0.06777
same,Gene expression BI966443 average,[1],0.1335
same,Gene expression BM198879 average,[1],−0.05617
same,Gene expression BM200015 average,[1],0.08087
same,Gene expression BM230508 average,[1],0.07603
same,Gene expression BM936480 average,[1],0.0483
same,Gene expression BQ174991 average,[1],−0.1546
same,Gene expression L21027 average,[1],0.2905
same,Gene expression NM_007556 average,[1],0.0638
same,Gene expression NM_007980 average,[1],−0.5064
same,Gene expression NM_007987 average,[1],0.03487
same,Gene expression NM_008522 average,[1],0.0486
same,Gene expression NM_008935 average,[1],0.4082
same,Gene expression NM_009897 average,[1],0.111
same,Gene expression NM_011075 average,[1],0.1618
same,Gene expression NM_011176 average,[1],0.1358
same,Gene expression NM_011316 average,[1],0.06377
same,Gene expression NM_012006 average,[1],0.5806
same,Gene expression NM_013642 average,[1],0.2659
same,Gene expression NM_013738 average,[1],−0.305
same,Gene expression NM_013929 average,[1],0.033
same,Gene expression NM_018881 average,[1],−0.1679
same,Gene expression NM_019738 average,[1],−0.9543
same,Gene expression NM_030697 average,[1],−0.0261
same,Gene expression NM_053122 average,[1],−0.142
same,Gene expression NM_134147 average,[1],−0.1757
same,Gene expression NM_134188 average,[1],−0.07067
same,Gene expression X62701 average,[1],0.154
same,Gene expression data AF000969 (Cadps2),[1],−0.3717
same,Gene expression data AF022072 (Grb10),[1],−0.4275
same,Gene expression data AF065917 (Lif),[1],−0.2101
same,Gene expression data AF297615 (Ggta1),[1],−0.0684
same,Gene expression data AI594683 (Dmn),[1],−0.09783
same,Gene expression data AI596632 (Ptprg /// LOC632664),[1],−0.227
same,Gene expression data AI987929 (Ndrg1),[1],0.4414
same,Gene expression data AK004419 (Fbxl17),[1],0.01113
same,Gene expression data AK005731 (1700007K13Rik),[1],0.1143
same,Gene expression data AK007766 (1810044A24Rik),[1],−0.0226
same,Gene expression data AK007854 (1810053B23Rik),[1],−0.076
same,Gene expression data AK009736 (Gpr137b /// LOC664862 /// LOC673335),[1],0.5337
same,Gene expression data AK010447 (Smyd3),[1],0.07697
same,Gene expression data AK014608 (4632434l11Rik),[1],−0.1225
same,Gene expression data AK019979 (2610528E23Rik),[1],0.08447
same,Gene expression data AV095209 (Mthfd1l),[1],0.1564
same,Gene expression data AV141095 (1110033M05Rik),[1],−0.07047
same,Gene expression data AV173571 (1700106N22Rik),[1],0.04197
same,Gene expression data AV219418 (Ldhb),[1],0.0363
same,Gene expression data AV223474 (Zdhhc14),[1],−0.06957
same,Gene expression data AV298304 (Homez),[1],−0.03607
same,Gene expression data AV327248 (Zfp365 /// LOC674611),[1],−0.082
same,Gene expression data AV377066 (9130221J18Rik),[1],−0.3212
same,Gene expression data AW240761 (Tbc1d5),[1],−0.2006
same,Gene expression data AW543460 (Pard3),[1],−0.0366
same,Gene expression data AW543723,[1],−0.0994
same,Gene expression data AW986246 (Maoa),[1],0.3198
same,Gene expression data BB027848 (4732466D17Rik),[1],−0.2807
same,Gene expression data BB043558 (9230114K14Rik),[1],−0.3734
same,Gene expression data BB275142 (AW456874),[1],−0.02507
same,Gene expression data BB308836 (Ppm1l),[1],0.2558
same,Gene expression data BB318221 (Zdhhc14),[1],0.1138
same,Gene expression data BB463610 (4632434l11Rik),[1],−0.2188
same,Gene expression data BB526605 (Mipol1),[1],−0.01453
same,Gene expression data BB770528 (Rai2),[1],0.1386
same,Gene expression data BB821363 (Scfd2),[1],0.1765
same,Gene expression data BC004827 (Psat1),[1],−0.1011
same,Gene expression data BC008626 (Icam1),[1],−0.4422
same,Gene expression data BC010462 (BC010462),[1],0.05663
same,Gene expression data BC012247 (Dcxr),[1],−0.0122
same,Gene expression data BC012260 (Psmf1),[1],0.2545
same,Gene expression data BC015270 (Hist2h3c2),[1],−0.03353
same,Gene expression data BC016073 (Cdkal1),[1],−0.05183
same,Gene expression data BC016265 (Ube2e2),[1],−0.2547
same,Gene expression data BC019882 (Acaa1b),[1],0.0605
same,Gene expression data BC025501 (Aaas),[1],0.1979
same,Gene expression data BC025837 (Sbk1),[1],−0.04227
same,Gene expression data BC025915 (Cova1),[1],−0.02643
same,Gene expression data BC026422 (Tgm1),[1],0.2873
same,Gene expression data BF719766 (Thyn1),[1],−0.1935
same,Gene expression data BG065754 (Ccng1),[1],−0.2279
same,Gene expression data BG066903 (Kif16b),[1],−0.1277
same,Gene expression data BG069873 (Gnb1l),[1],−0.04763
same,Gene expression data BG070887 (Gtdc1),[1],−0.04273
same,Gene expression data BG076151 (Ppm1d),[1],0.07243
same,Gene expression data BG261907 (Large),[1],−0.1486
same,Gene expression data BI651416 (Cdc42bpg),[1],0.1364
same,Gene expression data BI660702 (Ell3),[1],0.05113
same,Gene expression data BM198879 (Ercc5),[1],−0.006767
same,Gene expression data BM230508 (A030007D23Rik),[1],0.03497
same,Gene expression data NM_007987 (Fas),[1],−0.05523
same,Gene expression data NM_008522 (Ltf),[1],−0.05963
same,Gene expression data NM_008576 (Abcc1),[1],0.106
same,Gene expression data NM_011176 (St14),[1],0.05783
same,Gene expression data NM_011316 (Saa4),[1],0.0831
same,Gene expression data NM_012006 (Acot1),[1],−0.2532
same,Gene expression data NM_013866 (Zfp385),[1],0.05893
same,Gene expression data NM_018770 (Igsf4a),[1],0.1391
same,Gene expression data NM_021451 (Pmaip1),[1],−0.5295
same,Gene expression data NM_025770 (Atg10),[1],−0.1372
same,Gene expression data NM_028803 (Gbe1),[1],−0.04593
same,Gene expression data NM_030697 (Ankrd47),[1],0.2204
same,Gene expression data NM_053168 (Trim11),[1],−0.0493
same,Gene expression data NM_134188 (Acot2),[1],−0.2881
same,Gene expression data Y15910 (Diap2),[1],−0.2692
same,GTX in vivo,[2],−
same,Gene expression data AF204959 (Cyp3a25 /// LOC622249),[3],−0.4178
